Measured values from patent US20180298024A1, “CORTISTATIN ANALOGS AND USES THEREOF” (President and Fellows of Harvard College, priority 2015, published 2018).
Several values for one entry are separate records, joined by “and”; a condition that tells them apart may be missing. Identical values can stand only once. Blank lines part the entries; values can stand above or below the compound they belong to.

Legend:
Tachykinin NK1 = target: T1, Tachykinin NK1 (Homo sapiens, UniProt P25103); experiment: Panlab assay, Tachykinin NK1; type: binding
T1 construct: Eurofins Panlabs
Method: (§1) Compounds A, B, C, and D were tested in Panlab assays to evaluate potential off-target activity using standard assay kits. Methods employed in these studies have been adapted from the scientific literature to maximize reliability and reproducibility. Reference standards were run as an integral part of each assay to ensure the validity of the results obtained.
(§2) IC50 values were determined by a non-linear, least squares regression analysis using MathIQ™ (ID Business Solutions Ltd., UK). Where inhibition constants (Ki) are presented, the Ki values were calculated using the equation of Cheng and Prusoff (Cheng, Y., Prusoff, W. H., Biochem. Pharmacol. 22:3099-3108, 1973) using the observed IC50 of the tested compound, the concentration of radioligand employed in the assay, and the historical values for the KD of the ligand (obtained experimentally at Eurofins Panlabs, Inc.). Where presented, the Hill coefficient (nH), defining the slope of the competitive binding curve, was calculated using MathIQ™.

[1] = target: hERG (human ether-à-go-go-related gene) potassium channel (Homo sapiens, UniProt Q12809); experiment: in vitro
Method: (§3) The in vitro effects of compounds A, B, C, D, E, and F on the hERG (human ether-à-go-go-related gene) potassium channel current (a surrogate for IKr, the rapidly activating, delayed rectifier cardiac potassium current) expressed in mammalian cells were evaluated at room temperature using the QPatch HT (Sophion Bioscience A/S, Denmark), an automatic parallel patch clamp system. The test articles were evaluated at 1 μM, 3 μM, […] and 30 μM. Each test article concentration was tested in at least three cells. The duration of exposure to each test article concentration was a minimum of 3 minutes.

hERG potassium channel = hERG potassium channel (Homo sapiens, UniProt Q12809); experiment: in vitro; details: human
Method: as §3

[2] = TurboSol solubility evaluation in physiological saline; type: physicochemical; details: HB-PS+0.3% DMSO
[3] = Tolerability study of Compound F (body weight); type: in vivo, mice
Method: Twenty seven mice were used for the tolerability study of Compound F. Mice were randomly assigned to various treatment groups with n=3 mice/group. In the low dose group of 0.3 mg/kg Compound F administered IP, mice were re-challenged after 8 days of drug holiday with a higher dose of 20 mg/kg Compound F, IP. All mice were treated for 7 days unless as indicated below.
Mice were monitored clinically for signs of morbidity and for body weights daily. Mice showing signs of morbidity were euthanized as per study guidelines.

hERG = hERG (Homo sapiens, UniProt Q12809); experiment: hERG (IKr) current, PatchXpress 7000A planar voltage clamp; type: cell-based; design: expressed in transfected cells; host or cells: CHO or HEK293 cells
Method: (§4) The objective of this study was to evaluate the in vitro effects of Compound F on three cardiac ion channel currents: IKr, the rapidly activating, delayed rectifier potassium current through hERG channel encoded by human ether-à-go-go-related gene; IKs, the slowly activating, delayed rectifier cardiac potassium channel current encoded by hKCNQ1/hKCNE1; and INa, the human cardiac Na+ channel current encoded by hNav1.5 in CHO or HEK293 cells (Table 7). This functional assay was conducted using higher throughput planar voltage-clamp technology PatchXpress 7000A.
(§5) Signal amplitudes were quantified at steady state during control (vehicle) and in the presence of increasing concentrations of the test compound. Concentration-dependent changes of signal in response to compound were expressed as percent block relative to control (pre-drug/trigger) and are reported as the mean±SEM (standard error) of the indicated number (N) of tested cells/wells. IC50 values were determined where applicable by fitting the averaged concentration-response data (mean±SEM) with a Hill equation.

hERG channel (IKr) = target: T2, hERG channel (IKr) (Homo sapiens, UniProt Q12809); experiment: as above; type: cell-based; details: human, CHO or HEK293 cells expressing the hERG channel; PatchXpress functional voltage clamp
T2 construct: expressed in transfected cells; host or cells: CHO or HEK293 cells
Method: as §4, §5

hNav1.5 (INa) = target: T3, hNav1.5 (INa) (Homo sapiens, UniProt Q14524); experiment: INa current, PatchXpress 7000A planar voltage clamp; type: cell-based
T3 construct: expressed in transfected cells; host or cells: CHO or HEK293 cells
Method: as §4, §5

[4] = Pharmacokinetic profile in mice (plasma, LC-MS/MS); details: male, CD-1, mouse, plasma, po, 1 mg/kg
Method: Formulation correction for salt content was not required for this study. Materials were vortexed and sonicated at room temperature following addition of vehicle. The solutions were maintained at ambient temperature stirring in the dark for at least 30 minutes prior to dose administration. The formulations were then vortexed and sonicated briefly to help ensure solubility.
Mice were selected from the Testing Facility's rodent colony. The animals were enrolled in the study based on acceptable health as determined by Testing Facility personnel on the day of test article administration. Animals were held in environmental acclimation for at least 48 hours (±6 hours) prior to dosing. Animals were maintained at temperatures between 16-26° C. (62-78° F.) with the humidity range between 30-70%. Animals in all groups were fasted overnight and food was returned 4 hours following dosing. Water was provided ad libitum throughout the study.
Whole blood samples for plasma were either collected from each animal by either direct vein puncture of the submandibular vein (survival blood collection) or by cardiac puncture following euthanasia with CO2 (terminal blood collection). […] Following collection, whole blood was placed into a tube containing K2EDTA and immediately placed on wet ice until processed for plasma. Whole blood samples were centrifuged at 2200×g for 10 minutes in a refrigerated centrifuge (5±3° C.) to isolate plasma. The samples were transferred to individual polypropylene containers and immediately placed on dry ice before storage at −70±10° C. until analysis. Plasma collected from undosed spare animals was pooled and analyzed as well.
Once collected the mouse plasma studies were quantitated using LCMS/MS spectroscopy to determine the concentration of compound. […] Eight calibration standards containing the analyte and internal standard imipramine were prepared and analyzed at the beginning and at the end of the sequence. A calibration curve was generated and sample concentrations calculated using the Quantitation software MassHunter.

MV4; 11 = experiment: Half-maximal growth inhibition (GI50), MV4; 11; type: cell-based; details: Homo sapiens, 240 h, AML, M5, MLL-AF4, read-out: GI50 (nM), day 10
Method: (§6) Compounds A, B, C, D, and F were tested against various cell lines to probe their broad utility against cancer. Cortistatin A (CA) was also tested against the cell lines in a head to head fashion.

[5] = tested on: Human AML cell line MV4;11; experiment: MV4;11 disseminated leukemia model (bioluminescence); type: in vivo, NSG mice
Method: The in vivo anti-leukemic activity of Compounds A, B, C, D, and F was tested at the indicated doses and treatment schedules. The doses were chosen based on the compounds tolerability profile (i.e. CA was dosed at 0.16 mg/kg because higher doses caused weight loss or other tolerability issues outlined in Example 6). Human AML cell line MV4;11 expressing mCherry and luciferase were injected into NSG mice. Upon measurement of leukemia cell engraftment, treatment was initiated. Body weight and bioluminescence were measured. It has previously been shown (Shair, Nature 2015) that bioluminescence corresponds to leukemia burden. […] Moreover there was no appreciable advantage between IV or PO dosing observed.

MOLM-14 = experiment: Half-maximal growth inhibition (GI50), MOLM-14; type: cell-based; details: Homo sapiens, 240 h, AML, M5, MLL-AF9, read-out: GI50 (nM), day 10
Method: as §6

SKNO-1 = experiment: Half-maximal growth inhibition (GI50), SKNO-1; type: cell-based; details: Homo sapiens, 240 h, AML, M2, RUNX1-RUNX1T1, read-out: GI50 (nM), day 10
Method: as §6

hKCNQ1/hKCNE1 (IKs) = target: T4, hKCNQ1/hKCNE1 (IKs) (Homo sapiens, UniProt P51787); experiment: IKs current, PatchXpress 7000A planar voltage clamp; type: cell-based
T4 construct: expressed in transfected cells; host or cells: CHO or HEK293 cells
Method: as §4, §5

off-targets (Panlabs) = experiment: Panlab off-target assay panel; type: binding; details: 10 μM
Method: as §1, §2

Opiate μ(OP3, MOP) = target: T5, Opiate μ(OP3, MOP) (Homo sapiens, UniProt P35372); experiment: Panlab assay, Opiate μ(OP3, MOP); type: binding
T5 construct: Eurofins Panlabs
Method: Compounds A, B, C, and D were tested in Panlab assays to evaluate potential off-target activity using standard assay kits. Methods employed in these studies have been adapted from the scientific literature to maximize reliability and reproducibility.
IC50 values were determined by a non-linear, least squares regression analysis using MathIQ™ (ID Business Solutions Ltd., UK). […] Where presented, the Hill coefficient (nH), defining the slope of the competitive binding curve, was calculated using MathIQ™.

Adenosine Transporter = target: T6, Adenosine Transporter (Cavia porcellus, UniProt H0V4R7); experiment: Panlab assay, Adenosine Transporter; type: binding; details: reference standard
T6 sequence (H0V4R7 1-461): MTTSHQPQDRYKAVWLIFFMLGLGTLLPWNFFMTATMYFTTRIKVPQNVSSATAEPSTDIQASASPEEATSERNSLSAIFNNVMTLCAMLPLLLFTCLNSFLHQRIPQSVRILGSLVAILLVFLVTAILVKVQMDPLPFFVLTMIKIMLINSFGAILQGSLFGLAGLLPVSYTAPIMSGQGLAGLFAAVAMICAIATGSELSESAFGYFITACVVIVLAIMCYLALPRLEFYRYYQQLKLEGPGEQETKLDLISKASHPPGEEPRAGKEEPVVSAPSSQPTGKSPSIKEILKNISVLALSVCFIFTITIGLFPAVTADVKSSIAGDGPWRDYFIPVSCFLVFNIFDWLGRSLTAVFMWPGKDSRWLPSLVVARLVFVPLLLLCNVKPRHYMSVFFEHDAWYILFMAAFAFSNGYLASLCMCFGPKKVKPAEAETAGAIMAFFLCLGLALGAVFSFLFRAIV
Method: as §1, §2

[6] = Individual Data Points (% Inhibition), hERG

T1 sequence (P25103 whole entry): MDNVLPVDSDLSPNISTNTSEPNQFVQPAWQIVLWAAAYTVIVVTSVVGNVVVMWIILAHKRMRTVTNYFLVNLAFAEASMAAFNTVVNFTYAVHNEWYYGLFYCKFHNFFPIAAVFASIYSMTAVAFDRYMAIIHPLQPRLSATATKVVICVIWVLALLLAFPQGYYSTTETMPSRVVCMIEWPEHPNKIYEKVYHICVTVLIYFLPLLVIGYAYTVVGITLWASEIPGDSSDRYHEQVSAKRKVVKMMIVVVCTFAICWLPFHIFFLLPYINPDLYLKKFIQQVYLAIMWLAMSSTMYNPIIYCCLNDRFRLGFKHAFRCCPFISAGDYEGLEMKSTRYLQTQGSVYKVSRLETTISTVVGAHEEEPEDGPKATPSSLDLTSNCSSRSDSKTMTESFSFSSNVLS
hERG, sequence (Q12809 whole entry): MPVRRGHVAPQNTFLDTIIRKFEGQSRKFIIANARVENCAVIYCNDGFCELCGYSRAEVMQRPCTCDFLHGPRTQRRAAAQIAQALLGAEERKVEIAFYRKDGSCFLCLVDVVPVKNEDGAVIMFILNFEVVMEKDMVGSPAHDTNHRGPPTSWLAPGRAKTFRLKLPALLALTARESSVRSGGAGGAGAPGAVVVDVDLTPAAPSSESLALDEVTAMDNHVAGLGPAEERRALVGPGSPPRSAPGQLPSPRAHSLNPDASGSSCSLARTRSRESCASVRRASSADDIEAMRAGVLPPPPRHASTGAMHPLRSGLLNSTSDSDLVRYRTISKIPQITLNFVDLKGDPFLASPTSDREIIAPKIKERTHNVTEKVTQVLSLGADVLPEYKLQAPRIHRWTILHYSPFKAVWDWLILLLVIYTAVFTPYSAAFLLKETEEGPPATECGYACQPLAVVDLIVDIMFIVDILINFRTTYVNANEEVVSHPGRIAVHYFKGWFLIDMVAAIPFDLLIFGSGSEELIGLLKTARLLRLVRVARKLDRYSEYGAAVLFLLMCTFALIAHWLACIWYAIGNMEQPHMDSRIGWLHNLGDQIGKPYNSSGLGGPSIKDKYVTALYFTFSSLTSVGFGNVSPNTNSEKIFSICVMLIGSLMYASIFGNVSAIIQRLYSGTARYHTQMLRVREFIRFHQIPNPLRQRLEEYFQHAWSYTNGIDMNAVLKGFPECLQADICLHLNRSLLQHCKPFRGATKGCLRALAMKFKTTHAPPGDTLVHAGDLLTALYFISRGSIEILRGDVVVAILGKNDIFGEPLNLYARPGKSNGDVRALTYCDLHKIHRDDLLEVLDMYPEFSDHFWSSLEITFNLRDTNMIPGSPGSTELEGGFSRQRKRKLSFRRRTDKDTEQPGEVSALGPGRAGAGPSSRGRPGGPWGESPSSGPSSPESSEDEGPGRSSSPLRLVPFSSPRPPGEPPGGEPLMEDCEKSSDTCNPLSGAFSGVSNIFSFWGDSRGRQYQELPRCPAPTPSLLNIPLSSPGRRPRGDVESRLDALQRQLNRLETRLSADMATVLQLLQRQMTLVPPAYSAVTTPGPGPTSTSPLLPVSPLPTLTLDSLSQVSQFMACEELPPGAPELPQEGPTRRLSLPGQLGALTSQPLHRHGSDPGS
hERG potassium channel, sequence (Q12809 whole entry): as above
T3 sequence (Q14524 whole entry): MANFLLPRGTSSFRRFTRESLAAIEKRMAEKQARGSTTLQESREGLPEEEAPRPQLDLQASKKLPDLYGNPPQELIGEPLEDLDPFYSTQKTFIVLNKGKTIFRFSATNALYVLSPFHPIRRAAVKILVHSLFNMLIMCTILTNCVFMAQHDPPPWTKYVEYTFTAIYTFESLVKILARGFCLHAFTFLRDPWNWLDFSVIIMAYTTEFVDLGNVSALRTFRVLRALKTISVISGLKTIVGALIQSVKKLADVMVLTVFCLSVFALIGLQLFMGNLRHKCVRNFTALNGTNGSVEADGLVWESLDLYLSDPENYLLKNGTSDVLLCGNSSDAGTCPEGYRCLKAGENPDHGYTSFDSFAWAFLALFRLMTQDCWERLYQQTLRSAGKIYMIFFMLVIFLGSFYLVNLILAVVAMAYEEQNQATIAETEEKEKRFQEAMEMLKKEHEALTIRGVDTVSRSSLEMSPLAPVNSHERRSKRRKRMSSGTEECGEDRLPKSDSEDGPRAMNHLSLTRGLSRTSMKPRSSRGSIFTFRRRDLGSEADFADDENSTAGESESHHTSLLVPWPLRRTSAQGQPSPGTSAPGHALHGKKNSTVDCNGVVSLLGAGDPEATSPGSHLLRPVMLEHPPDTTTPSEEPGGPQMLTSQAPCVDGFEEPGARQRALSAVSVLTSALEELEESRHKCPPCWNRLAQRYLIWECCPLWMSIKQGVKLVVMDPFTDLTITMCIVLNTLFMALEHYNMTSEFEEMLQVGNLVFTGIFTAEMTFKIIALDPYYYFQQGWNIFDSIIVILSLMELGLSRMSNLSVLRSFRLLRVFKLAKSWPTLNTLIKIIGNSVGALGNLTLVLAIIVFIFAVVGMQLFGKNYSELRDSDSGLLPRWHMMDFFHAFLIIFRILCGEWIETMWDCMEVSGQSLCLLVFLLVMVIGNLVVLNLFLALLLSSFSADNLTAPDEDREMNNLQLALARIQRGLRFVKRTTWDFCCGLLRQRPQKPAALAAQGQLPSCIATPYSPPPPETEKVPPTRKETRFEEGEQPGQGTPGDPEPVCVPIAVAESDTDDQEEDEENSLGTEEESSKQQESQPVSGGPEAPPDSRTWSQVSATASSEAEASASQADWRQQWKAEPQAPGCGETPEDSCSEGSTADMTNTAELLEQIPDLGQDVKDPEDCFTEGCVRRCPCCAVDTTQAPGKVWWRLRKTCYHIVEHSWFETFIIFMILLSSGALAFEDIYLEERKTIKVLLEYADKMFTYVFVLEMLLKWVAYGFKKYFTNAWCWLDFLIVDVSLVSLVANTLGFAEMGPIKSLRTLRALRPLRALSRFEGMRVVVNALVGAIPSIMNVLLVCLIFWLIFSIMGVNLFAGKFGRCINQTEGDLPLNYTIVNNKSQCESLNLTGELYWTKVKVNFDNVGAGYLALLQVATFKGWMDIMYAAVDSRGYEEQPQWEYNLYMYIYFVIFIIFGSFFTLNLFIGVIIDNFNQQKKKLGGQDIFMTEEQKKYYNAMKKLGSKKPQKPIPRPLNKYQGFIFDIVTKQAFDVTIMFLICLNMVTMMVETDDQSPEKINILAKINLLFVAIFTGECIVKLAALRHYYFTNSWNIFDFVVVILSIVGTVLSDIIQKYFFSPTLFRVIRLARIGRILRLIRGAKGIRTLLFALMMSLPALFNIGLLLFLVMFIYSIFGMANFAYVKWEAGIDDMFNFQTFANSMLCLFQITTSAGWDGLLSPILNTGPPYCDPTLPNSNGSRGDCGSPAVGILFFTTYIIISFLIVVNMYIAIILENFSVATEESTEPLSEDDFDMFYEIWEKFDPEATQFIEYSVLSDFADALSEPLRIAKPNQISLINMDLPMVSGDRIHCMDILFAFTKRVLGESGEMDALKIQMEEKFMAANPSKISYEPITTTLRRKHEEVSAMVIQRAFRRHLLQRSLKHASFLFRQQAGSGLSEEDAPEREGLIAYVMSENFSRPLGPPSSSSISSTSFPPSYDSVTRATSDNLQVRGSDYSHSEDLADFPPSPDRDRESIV

AUC(0-inf) [4]: 524 ng·h/mL
GI50 (MV4; 11): 1 nM
GI50 (MOLM-14): 3 nM
GI50 (SKNO-1): < 1 nM
IC50 (hKCNQ1/hKCNE1 (IKs)): 17000 nM
IKS % Block Mean ± SEM (n) (hKCNQ1/hKCNE1 (IKs); 10 μM): 34 ± 7 (5) %
IKS % Block Mean ± SEM (n) (hKCNQ1/hKCNE1 (IKs); 30 μM): 68±15% and 68 ± 15 (4) %
number of targets with greater than 50% inhibition (off-targets (Panlabs); over 100 Panlab assays): over 20
number of targets with inhibition of greater than or equal to 75% (off-targets (Panlabs); over 100 Panlab assays): 12
SMILES: C[C@]12CC=C3C=C4CC[C@@H](N5CCC5)C[C@]45CCC3(O5)[C@@H]1CC[C@@H]2c1ccc2ccncc2c1 [Compound F]
body weight loss ([3]; IP 20 mg/kg, 2 of 3 mice): > 15%
average body weight loss ([3]; oral 1 mg/kg): ~10%
body weight loss ([3]; oral 3 mg/kg, 3 of 3 mice, requiring drug holiday): > 15%
body weight loss ([3]; oral 10 mg/kg, not tolerated): > 20%
hERG % Block Mean ± SEM (n) (hERG; 0.12 μM): 21 ± 2 (3) %
hERG % Block Mean ± SEM (n) (hERG; 0.37 μM): 51 ± 1 (3) %
hERG % Block Mean ± SEM (n) (hERG; 1.1 μM): 77 ± 0 (3) %
hERG % Block Mean ± SEM (n) (hERG; 3.3 μM): 94 ± 0 (4) %
hERG % Block Mean ± SEM (n) (hERG; 10 μM): 97 ± 0 (4) %
hERG % Block Mean ± SEM (n) (hERG; 30 μM): 102 ± 1 (4) %
IC50 (hERG; PatchXpress functional voltage clamp): 370 nM
IC20 (hERG channel (IKr)): 110 nM
INa at 3 Hz % Block Mean ± SEM (n) (hNav1.5 (INa); 3.3 μM, pulsing rate 3 Hz): 30 ± 5 (4) %
INa at 3 Hz % Block Mean ± SEM (n) (hNav1.5 (INa); 10 μM, pulsing rate 3 Hz): 60 ± 3 (4) %
inhibition at 30 µM (hNav1.5 (INa); 30 μM, pulsing rate 0.2 Hz): 86 ± 2%
INa at 3 Hz % Block Mean ± SEM (n) (hNav1.5 (INa); 30 μM, pulsing rate 3 Hz): 98±1% and 98 ± 1 (4) %
IC50 (hNav1.5 (INa); pulsing rate 0.2 Hz): 14000 nM
IC50 (hNav1.5 (INa); pulsing rate 3 Hz): 6500 nM
Fold increase in leukemia burden 15 days after 1st dose ([5]; 1 mpk PO QDx15, NSG mice): 12.3 fold
Efficacy Rank Day 15 ([5]; each compound at its own dose/schedule, data from 3 separate studies): 6
number of targets with ≥75% inhibition (off-targets (Panlabs); Safety Panel = 28 binding assays (Eurofins Panlabs)): 12

IC50 (Adenosine Transporter): 0.35 nM
Ki (Adenosine Transporter; Cheng and Prusoff): 0.12 nM
SMILES: O=[N+]([O-])c1ccc(CSc2ncnc3c2ncn3C2OC(CO)C(O)C2O)cc1 (stereo not drawn) [nitrobenzylthioinosine, Nitrobenzylthioinosine, reference compound]

Continued, compound first:

SMILES: Ic1ccccc1CN[C@@H]1C2CCN(CC2)[C@@H]1C(c1ccccc1)c1ccccc1 (racemic) [L-703,606, reference compound]
nH (Hill coefficient), Tachykinin NK1 (Tachykinin NK1): 0.88
IC50 (Tachykinin NK1; reference standard): 3.6 nM
Ki (Tachykinin NK1; reference standard, Cheng and Prusoff): 2.6 nM

SMILES: C[C@]12CC=C3C=C4CC[C@@H](N5CCCC5)C[C@]45CCC3(O5)[C@@H]1CC[C@@H]2c1ccc2ccncc2c1 [Compound E]
activity in the hERG assay [1]: sub-micromolar activity
IC50 ([1]; hERG IC50, QPatch HT, room temperature): 562 nM
inhibition at 1 µM (hERG potassium channel; [6]): 65.6%
inhibition at 3 µM (hERG potassium channel; [6]): 83.4%
inhibition at 10 µM (hERG potassium channel; [6]): 93.8%
inhibition at 30 µM (hERG potassium channel; [6]): 97.7%
inhibition at 1 µM (hERG potassium channel; Mean % hERG Inhibition): 67.2%
inhibition at 3 µM (hERG potassium channel; Mean % hERG Inhibition): 79.2%
inhibition at 10 µM (hERG potassium channel; Mean % hERG Inhibition): 93%
inhibition at 30 µM (hERG potassium channel; Mean % hERG Inhibition): 98.8%
Average LSU (×1000) ([2]; 1 μM): 3.7 LSU (×1000)
Average LSU (×1000) ([2]; 3 μM): 4.7 LSU (×1000)
Average LSU (×1000) ([2]; 10 μM): 6.4 LSU (×1000)
Average LSU (×1000) ([2]; 30 μM): 8.7 LSU (×1000)
solubility in the TurboSol assay [2]: slightly insoluble at 30 μM

SMILES: C[C@@H](NC(=O)[C@@H](N)Cc1ccc(O)cc1)C(=O)NCC(=O)N(C)[C@@H](Cc1ccccc1)C(=O)NCCO [DAMGO, reference compound]
nH (Hill coefficient), Opiate μ(OP3, MOP) (Opiate μ(OP3, MOP)): 0.75
